# In US20170239237A1, “PYRROLOQUINOLINE DERIVATIVES AS 5-HT6 ANTAGONISTS, PREPARATION METHOD AND USE THEREOF” (Uniwersytet Jagiellonski, priority 2013, published 2017):
# Marks after values point to notes of the source that are not given here.
# Biological target: 5-HT6 receptor (Homo sapiens, UniProt P50406)
# Experiment: Radioligand binding, 5-HT6 ([3H]-LSD displacement)
# Conditions: 10^−6 M; values marked c in the 5-HT6 column
# 5-HT6 receptor, sequence (P50406 whole entry): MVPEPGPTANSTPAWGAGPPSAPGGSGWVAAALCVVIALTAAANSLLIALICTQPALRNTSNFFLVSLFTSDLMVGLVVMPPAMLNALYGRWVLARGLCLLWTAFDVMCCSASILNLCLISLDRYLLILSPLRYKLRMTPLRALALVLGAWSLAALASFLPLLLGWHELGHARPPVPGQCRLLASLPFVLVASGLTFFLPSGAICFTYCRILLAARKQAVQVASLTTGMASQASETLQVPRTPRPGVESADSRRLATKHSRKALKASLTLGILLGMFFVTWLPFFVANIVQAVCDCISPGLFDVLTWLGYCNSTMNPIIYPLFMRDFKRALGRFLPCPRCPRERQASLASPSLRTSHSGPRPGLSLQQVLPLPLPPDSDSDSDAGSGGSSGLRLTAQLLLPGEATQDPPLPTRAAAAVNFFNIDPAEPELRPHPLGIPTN
row,Molecule,"displacement % at 10^−6M, 5-HT6"
1,"8-carbonitrile-1-(naphthalen-1-ylsulfonyl)-4-(piperazin-1-yl)-1H-pyrrolo[3,2-c]quinoline [Compound 67]",100^c %
2,"O=S(=O)(c1cccc(Cl)c1)n1ccc2c(NC3CNC3)nc3ccccc3c21 [Compound 2, 1-((3-chlorophenyl)sulfonyl)-N-(azetidin-3-yl)-1H-pyrrolo[3,2-c]quinolin-4-amine]",98^c %
3,"O=S(=O)(c1cccc(F)c1)n1ccc2c(N[C@H]3CCNC3)nc3ccccc3c21 [Compound 9, (S)-1-((3-fluorophenyl)sulfonyl)-N-(pyrrolidin-3-yl)-1H-pyrrolo[3,2-c]quinolin-4-amine]",99^c %
4,"O=S(=O)(c1cccc(C(F)(F)F)c1)n1ccc2c(N[C@H]3CCNC3)nc3ccccc3c21 [Compound 15, (S)-1-((3-(trifluoromethyl)phenyl)sulfonyl)-N-(pyrrolidin-3-yl)-1H-pyrrolo[3,2-c]quinolin-4-amine]",98^c %
5,"O=S(=O)(c1cccc(C(F)(F)F)c1)n1ccc2c(N[C@@H]3CCNC3)nc3ccccc3c21 [Compound 16, (R)-1-((3-(trifluoromethyl)phenyl)sulfonyl)-N-(pyrrolidin-3-yl)-1H-pyrrolo[3,2-c]quinolin-4-amine]",99^c %
6,"Nc1ccc(S(=O)(=O)n2ccc3c(NC4CCNC4)nc4ccccc4c32)cc1 (stereo not drawn) [Compound 18, 1-((4-aminophenyl)sulfonyl)-N-(pyrrolidin-3-yl)-1H-pyrrolo[3,2-c]quinolin-4-amine]",100^c %
7,"Nc1ccc(S(=O)(=O)n2ccc3c(N[C@H]4CCNC4)nc4ccccc4c32)cc1 [Compound 19, (S)-1-((4-aminophenyl)sulfonyl)-N-(pyrrolidin-3-yl)-1H-pyrrolo[3,2-c]quinolin-4-amine]",100^c %
8,"Nc1ccc(S(=O)(=O)n2ccc3c(N[C@@H]4CCNC4)nc4ccccc4c32)cc1 [Compound 20, (R)-1-((4-aminophenyl)sulfonyl)-N-(pyrrolidin-3-yl)-1H-pyrrolo[3,2-c]quinolin-4-amine]",99^c %
9,"O=S(=O)(c1cccc(Cl)c1)n1ccc2c(NC3CCNC3)nc3cc(F)ccc3c21 (stereo not drawn) [Compound 24, 7-fluoro-1-((3-chlorophenyl)sulfonyl)-N-(pyrrolidin-3-yl)-1H-pyrrolo[3,2-c]quinolin-4-amine]",95^c %
10,"O=S(=O)(c1cccc(Cl)c1)n1ccc2c(NC3CCNC3)nc3ccc(Cl)cc3c21 (stereo not drawn) [Compound 25, 8-chloro-1-((3-chlorophenyl)sulfonyl)-N-(pyrrolidin-3-yl)-1H-pyrrolo[3,2-c]quinolin-4-amine]",96^c %
11,"CNC1CCN(c2nc3ccccc3c3c2ccn3S(=O)(=O)c2ccccc2)C1 (stereo not drawn) [Compound 26, N-methyl-1-(1-(phenylsulfonyl)-1H-pyrrolo[3,2-c]quinolin-4-yl)pyrrolidin-3-amine]",90^c %
12,"O=S(=O)(c1ccc2ccccc2c1)n1ccc2c(N3CCNCC3)nc3ccccc3c21 [Compound 44, 1-(naphthalen-2-ylsulfonyl)-4-(piperazin-1-yl)-1H-pyrrolo[3,2-c]quinoline]",99^c %
13,"O=C(c1cccc(Cl)c1)n1ccc2c(N3CCNCC3)nc3ccccc3c21 [Compound 51, (3-chlorophenyl)-(4-(piperazin-1-yl)-1H-pyrrolo[3,2-c]quinolin-1-yl)methanone]",90^C %
14,"CC(C)c1ccc(S(=O)(=O)n2ccc3c(N4CCNCC4)nc4ccc([N+](=O)[O-])cc4c32)cc1 [Compound 63, 8-nitro-1-((4-isopropylphenyl)sulfonyl)-4-(piperazin-1-yl)-1H-pyrrolo[3,2-c]quinoline]",86^c %
15,"Nc1ccc2nc(N3CCNCC3)c3ccn(S(=O)(=O)c4ccc(Cl)c(Cl)c4)c3c2c1 [Compound 65, 8-amino-1-((3,4-dichlorophenyl)sulfonyl)-4-(piperazin-1-yl)-1H-pyrrolo[3,2-c]quinoline]",90^c %
